“And” between values parts separate entries of the source, which are not always exact repeats. Equal entries are not always repeated.

Data on 4 compounds can be found in patent US8729023B2 (priority 2002, dated 2014).

Data set [1] has as its system breast tissue of cancer-free and breast tumor-bearing rats. Nature of the data set: Effect of BQ788 on ET-1-induced changes in perfusion, CMBC and velocity of blood cells in breast tissue. Type of data set: in vivo, rat.
For data set [2] the test system is unchanged. Nature of the data set: Effect of ET-1 infusion on blood flow and regional vascular resistance in breast tissue, microspheres. In kind it is in vivo, rat.
Data set [3] shares this test system. Nature of the data set: Effect of ET-1 on perfusion, CMBC and velocity of blood cells in breast tissue, laser Doppler flowmetry. Type of data set: in vivo, rat. On the procedure: MNU and saline treatments were performed as i.p. injections three months prior to the studies. Rats were palpated regularly starting four weeks after the treatments. Once tumors reached about 4-8 mm in diameter, experiments were initiated.
Rats were initially divided into two groups, each receiving one of the following treatments: • Group I: ET-1 (50 ng/kg/min) infusion for 30 minutes in rats treated with saline (normal rats) (N=6); and • Group II: ET-1 (50 ng/kg/min) infusion for 30 minutes in treated with MNU (50 mg/kg, i.p.; tumor rats) (N=6).
Systemic hemodynamic and regional circulation parameters were determined at baseline, 30, 60, and 120 minutes after starting ET-1 (50 ng/kg/min) infusion.
Blood perfusion to the mammary gland of the rats was measured using laser Doppler flowmetry. See Song et al., Int J Radiat Oncol Biol Phys, 18:903 (1990); Song et al., Int J Radiat Oncol Biol Phys, 17:1041 (1989). The animals were shaved around the nipples. The skin surrounding the mammary glands was dissected out as a lambeau about 6 cm wide and about 4 cm long. A standard model fiber optic probe was applied to the surface of the lambeau, and secured to the tissue by double stick tape. The lambeau was placed in a metal holder and taped down to prevent movement, then connected to a Periflux PF2b 4000 Laser Doppler Flowmetry (Perimed K B, Stockholm, Sweden). The time constant was set at 1.5 seconds and the bandwidth was set at 4 KHz. Data were analyzed using analysis of variance followed by Duncan's test. A level of p<0.05 was considered significant.

Data set [4] is described as follows: Effect of ET-1 infusion on systemic hemodynamics, radioactive microsphere technique. Type of data set: in vivo, rat. The following applies: ET-1 50 ng/kg/min infusion for 30 minutes.
Data set [5] deals with JHU-4 (MAT-LyLu) prostate tumor. Particulars: rat, in vivo.
The conditions of data set [6]: rat, in vivo.
Data set [7] concerns MNU-induced breast tumors. The following applies: rat, in vivo.
Data set [8] relates to human melanoma cells (UISO-MEL-2) tumor. Particulars: nude, mouse, in vivo.
A further data set in a line: in vivo. Particulars: female, Sprague Dawley, rat.
[9] abbreviates: normal saline-treated rats, ET-1 50 ng/kg/min infusion for 30 minutes.
The mark [10] stands for this setting: tumor-bearing rats, at 30 minutes.
The mark [11] stands for this setting: tumor-bearing rats, at 60 minutes.
[12] abbreviates: tumor-bearing rats, at 120 minutes.
The mark [13] stands for this setting: female, Sprague Dawley, iv, 3 nmol/kg.

With `CCCC[C@@H](NC(=O)[C@@H](Cc1cn(C(=O)OC)c2ccccc12)NC(=O)[C@H](CC(C)(C)C)NC(=O)N1[C@H](C)CCC[C@@H]1C)C(=O)O` [BQ788, N-cis-2,6-dimethylpiperidinocarbonyl-L-gamma-methyll-eucyl-D-1-methoxycarbonyltrptophanyl-D-Nle], in data set [1] (after BQ788 infusion), the “CMBC of tumor-bearing versus normal rats” value is recorded as “no difference” and the “velocity of RBC, tumor-bearing versus normal rats” value is “no difference”. Further, the “perfusion in breast tissue of tumor-bearing rats versus normal rats” value in [1] (following ET-1 administration in BQ788 pretreated rats) is given as “No difference”. Further, the “blood perfusion in the breast tissue” value in data set [1] (normal rats, BQ788 0.5 μmol/kg infusion for 20 minutes followed by ET-1 50 ng/kg/min for 30 minutes) was “did not change significantly”. For the same compound, the “effect of pretreatment on the increase in perfusion induced by ET-1” value in data set [1] (tumor-bearing rats) is reported as “attenuated”.

As to `CC[C@H](C)[C@H](NC(=O)[C@H](CC(=O)O)NC(=O)[C@H](CC(C)C)NC(=O)[C@H](Cc1c[nH]cn1)NC(=O)[C@@H]1CSSC[C@H](N)C(=O)N[C@@H](CO)C(=O)N[C@H]2CSSC[C@H](NC(=O)[C@H](CCC(=O)O)NC(=O)[C@H](CCCCN)NC(=O)[C@H](CC(=O)O)NC(=O)[C@H](CCSC)NC(=O)[C@H](CC(C)C)NC(=O)[C@H](CO)NC(=O)[C@H](CO)NC2=O)C(=O)N[C@@H](C(C)C)C(=O)N[C@@H](Cc2ccc(O)cc2)C(=O)N[C@@H](Cc2ccccc2)C(=O)N1)C(=O)N[C@H](C(=O)N[C@@H](Cc1c[nH]c2ccccc12)C(=O)O)[C@@H](C)CC` [ET-1], the “vascular resistance in tumor-bearing rats, difference compared to normal rats” value in data set [2] (at 60 minutes following ET-1 administration) came out at 147%. In data set [2] (at 60 minutes following administration of ET-1 50 ng/kg/min), the “increase in blood flow to the breast tissue of tumor-bearing rats as compared to normal rats” value is 153%. Besides, the “change in blood flow to the breast tissue” value in [2] (setting [9]) is listed as “No significant change”. The “change in vascular resistance in breast tissue” value in data set [2] (setting [9]) is listed as “No significant change”. Moreover, the “velocity of RBC in tumor-bearing rats” value in [3] (120 minutes after ET-1 administration) was “returned to baseline”. In data set [3] (at 60 and 120 minutes following ET-1 administration), the “perfusion in the breast tissue of tumor-bearing rats” value is recorded as “returned to baseline”. The “perfusion in the breast tissue of tumor-bearing rats, increase compared to normal rats” value in data set [3] (at 30 minutes following ET-1 administration) was 176%. For the same compound, the “CMBC in tumor-bearing rats, increase as compared to normal rats” value in data set [3] (at 60 minutes post ET-1 administration) was 54%. Moreover, the “CMBC in tumor-bearing rats” value in data set [3] (at 120 minutes after ET-1 administration) was “returned to baseline”. Also, in data set [3] (normal rats, after ET-1 50 ng/kg/min infusion), the “blood perfusion in the breast tissue” value is reported as “did not significantly change”. In data set [3] (tumor-bearing rats, at 30 minutes post ET-1 administration), the “velocity of RBC, increase compared to normal rats” value is reported as 252%. The “change in HR” value in data set [4] (normal rats) is given as “No significant change”; in [4] (tumor-bearing rats) it was “No change”. Further, the “increase in MAP” value is listed as 14.5% in data set [4] (normal rats, at 30 minutes); 19.1% in [4] (tumor-bearing (MNU treated) rats, at 30 minutes); 15.3% in data set [4] (tumor-bearing (MNU treated) rats, at 60 minutes). Further, the CO decrease in data set [4] (normal rats, at 60 minutes) is reported as 22.9%; in data set [4] (normal rats, at 120 minutes), 42.5%; in data set [4] (setting [10]) it was 29.4%; in data set [4] (setting [11]), 16.7%; in data set [4] (setting [12]) it was 36.1%. For the same compound, the SV decrease in data set [4] (normal rats, at 60 minutes) is reported as 20.9%; in data set [4] (normal rats, at 120 minutes), 36%; in [4] (setting [10]), 31.1%; in data set [4] (setting [11]), 17.9%; in data set [4] (setting [12]), 32.1%. In addition, the TPR increase in data set [4] (normal rats, at 120 minutes) is listed as 49.2%; in [4] (setting [10]), 73.9%; in data set [4] (setting [11]), 39.7%; in data set [4] (setting [12]) it was 71.4%. In addition, the “decrease in MAP” value in [4] (normal rats, at 120 minutes) came to 17.8%.

Turning to `COc1cccc2c1C(=O)c1c(O)c3c(c(O)c1C2=O)C[C@@](O)(C(=O)CO)C[C@@H]3O[C@H]1C[C@H](N)[C@H](O)[C@H](C)O1` [saline+DOX, doxorubicin], in data set [5], the “maximum decrease in body weight” value is −8.46±3.88.

In data set [6] (female, Sprague Dawley), `CC(=O)O[C@H]1C(=O)[C@@]2(C)[C@H]([C@H](OC(=O)c3ccccc3)[C@]3(O)C[C@H](OC(=O)[C@H](O)[C@@H](NC(=O)c4ccccc4)c4ccccc4)C(C)=C1C3(C)C)[C@]1(OC(C)=O)CO[C@@H]1C[C@@H]2O` [paclitaxel] yielded a K10 of 3.14 ± 1.34, a K12 of 56.47 ± 27.69, a K13 of 5.71 ± 3.37 and a βt½ of 1.0 ± 0.32 h. This compound also had a γt½ in data set [6] (female, Sprague Dawley) of 25.87 ± 17.81 h. In data set [6] (female, Sprague Dawley, iv), the AUC of paclitaxel is 9433.53 ± 1465.00 ng·h/mL and the “elimination half-life of paclitaxel” value was found to be 8.4 ± 4.8 min. In addition, in [6] (setting [13]), the “AUC0-∞” value amounted to 9430 ± 1470 ng·h/mL; the Cl is 9.33 ± 1.2 mL/min/kg; the Vss (commonly a proportionality between amount in the body and measured concentration, not a real space) stood at 8.14 ± 2.95 L/kg; the “α t1/2” value was determined as 0.03 ± 0.01. For the same compound, in data set [6] (setting [13]), the “β t1/2” value was 1.0 ± 0.32 and the “γ t1/2” value was 25.87 ± 17.81. Also, in data set [6], the “clearance calculated as Dose/AUC” value is 9.33 ± 1.2 mL/min/kg. Moreover, in data set [7], the “percent of tumors progressed” value was 71.4% and 61.1%; the “percent of tumors regressing in size” value was found to be 9.5%; the “percent of tumors remaining in stasis” value was 22.2% and 19.5%; the “reduction in tumor volume as compared to control rats” value was found to be 60.0%. In data set [7], the “regression (FIG. 13)” value was determined as 33.8±19.4%; the “tumor multiplicity, new tumor occurrence” value is 78.3% and 41%; the tumor regression rate is given as 37.7±16.2%; the tumor volume was 1960.8±611.9 mm^3 and 1682.7±497.3 mm^3. In addition, the “tumors regressed compared to control rats” value in data set [7] is 45.9±11.5%. For the same compound, the “tumor [^3H]paclitaxel concentration” value in [8] was 40.77 nmol/g tissue. In addition, in the data set “in vivo”, the mean residence time MRT (usually the average time that molecules of a dose stay in the body) turned out to be 27.9 ± 19.8 h and the half-life (in general, the time needed for the level to fall by half in the phase considered) is 1.8 ± 0.6 min. Besides, in “in vivo” (iv, 3 nmol/kg), the Cmax (in general, the highest concentration seen after dosing) came to 6730 ± 540 ng/mL; the MRT is 27.9 ± 19.8 h; the MRT inf (as a rule, the average time that molecules of a dose stay in the body) was determined as 17.4 ± 8.13 h. The AUC(0-inf) (in general, the area under the concentration-time curve extrapolated to infinity) in the data set “in vivo” (iv, 3 nmol/kg, AUC0-∞) is 9420 ± 3180 ng·h/mL. The clearance (usually the volume of plasma or blood freed of the substance per unit of time) in the data set “in vivo” (iv, 3 nmol/kg, Cl) was 11.5 mL/min/kg. The Vd (commonly the apparent volume that relates the amount in the body to the concentration in plasma or blood) in “in vivo” (iv, 3 nmol/kg, Vd) was determined as 10.1 ± 4.18 L/kg. The Vd in the data set “in vivo” (iv, 3 nmol/kg, Vss) was found to be 10.3 ± 4.54 L/kg.
